Test results from ChEMBL document CHEMBL1134165, “Anthraquinone-peptides as inhibitors of AP-1 transcription factor” (Bioorg Med Chem Lett, 2001).

Tests used:
Format in all cases: nucleic-acid assay
Details in all cases: Bos taurus
Nucleic Acid [1] = test: Delta Tm is the difference between the melting temperature of calf thymus DNA in the presence and absence of 2-peptide conjugate at a 10:1 ratio of DNA/drug
Nucleic Acid [2] = test: Percent maximum loss of ethidium bromide (EtBr) fluorescence bound to DNA (ratio 1:3) in presence of 2-peptide conjugate
Nucleic Acid [3] = test: Delta Tm is the difference between the melting temperature of calf thymus DNA in the presence and absence of 2-peptide conjugate at a 10:1ratio of DNA/drug

| Substance | ΔTm (Nucleic Acid [1]) | Quench (Nucleic Acid [2]) [%] | ΔTm (Nucleic Acid [3]) |
| --- | --- | --- | --- |
| H-AAKCRAA-OH | 6 | – | – |
| H-AKCRA-OH | 7.5 | – | – |
| H-AKCRDA-OH | 5.5 | 5 | – |
| H-AKCRDRA-OH | 10.3 | – | – |
| H-AKCRKA-OH | 7.3 | – | – |
| H-AKCRKRA-OH | 9 | 45 | – |
| H-AKSRA-OH | 5.5 | – | – |
| H-ARCKA-OH | – | – | 4.8 |
